Laboratory results taken from patent publication US6875761B2 (Eisai Co., Ltd., priority 1997, dated 2005).
Counter-ions that a name gives are not always drawn.

Columns and labels:
serotonin 1A receptor = target: T1, serotonin 1A receptor (Rattus norvegicus, UniProt P19327); experiment: Binding test on [3H] 8-hydroxy-dipropylaminotetralin, hippocampus receptor fraction; design: species or system SD rats; conditions: rat hippocampus receptor fraction, 0.5 nM [3H] 8-OH-DPAT, room temperature 30 min; read-out: 5HT1
T1 construct: To the receptor fraction of the hippocampus were added a test compound and 0.5 nM of [^3H]; 8-hydroxy-dipropylaminotetralin; from tissue; host or cells: rat hippocampus membrane fraction
T1 sequence (P19327 1-422): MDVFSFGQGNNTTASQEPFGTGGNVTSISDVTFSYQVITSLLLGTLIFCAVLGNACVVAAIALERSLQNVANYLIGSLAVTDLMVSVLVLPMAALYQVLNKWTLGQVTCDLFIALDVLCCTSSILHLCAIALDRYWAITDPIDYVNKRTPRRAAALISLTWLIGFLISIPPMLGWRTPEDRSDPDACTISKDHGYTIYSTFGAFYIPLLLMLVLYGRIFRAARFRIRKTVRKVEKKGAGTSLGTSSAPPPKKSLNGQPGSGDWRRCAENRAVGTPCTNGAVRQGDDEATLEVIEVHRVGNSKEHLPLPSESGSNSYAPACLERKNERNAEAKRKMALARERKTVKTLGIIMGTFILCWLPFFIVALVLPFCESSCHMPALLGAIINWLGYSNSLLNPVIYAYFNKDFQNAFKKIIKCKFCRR

serotonin 2 receptor = target: T2, serotonin 2 receptor (Rattus norvegicus, UniProt P14842); experiment: Binding test on [3H] ketanserin, cerebral cortex receptor fraction; design: species or system SD rats; conditions: 0.3 nM [3H] ketanserin, 37° C. 15 min, read-out: 5HT2
T2 construct: To the receptor fraction of the cerebral cortex were added a test compound and 0.3 nM of [^3H] ketanserin; from tissue; host or cells: rat cerebral cortex membrane fraction
T2 sequence (P14842 whole entry): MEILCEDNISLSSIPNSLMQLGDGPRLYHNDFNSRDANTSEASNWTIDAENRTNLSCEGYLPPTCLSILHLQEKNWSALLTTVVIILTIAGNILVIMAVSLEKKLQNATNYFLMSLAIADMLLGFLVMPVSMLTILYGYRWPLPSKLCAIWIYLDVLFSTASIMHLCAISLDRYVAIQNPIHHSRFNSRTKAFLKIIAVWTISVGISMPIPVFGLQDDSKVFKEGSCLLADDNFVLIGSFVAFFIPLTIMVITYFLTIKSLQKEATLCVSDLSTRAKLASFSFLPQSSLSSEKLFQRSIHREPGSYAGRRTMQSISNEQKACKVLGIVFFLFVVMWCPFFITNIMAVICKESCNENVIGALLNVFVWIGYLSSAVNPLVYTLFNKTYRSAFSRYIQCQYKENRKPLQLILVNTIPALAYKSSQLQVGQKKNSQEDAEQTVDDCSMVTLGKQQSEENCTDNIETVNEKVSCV

| Structure (SMILES) | Ki (serotonin 1A receptor) [nM] | Ki (serotonin 2 receptor) [nM] |
| --- | --- | --- |
| CCC#Cc1ccc(-c2cc3ccccc3c(N3CCN(CC)CC3)n2)cn1 [Example 146, 1-(1-ethylpiperazin-4-yl)-3-[2-(1-butyn-1-yl)pyridin-5-yl]isoquinoline] | 170 | 2.9 |
| CCN1CCN(c2nc(-c3ccc(N4CCOCC4)nc3)cc3ccccc23)CC1 [Example 147, 1-(4-ethylpiperazin-1-yl)-3-[2-(morpholin-4-yl)pyridin-5-yl]isoquinoline trihydrochloride] | 6.5 | 1.7 |
| CCN1CCN(c2nc(-c3ccc(N4CCOCC4)cn3)cc3ccccc23)CC1 [Example 148, 1-(4-ethylpiperazin-1-yl)-3-[5-(morpholin-4-yl)pyridin-2-yl]isoquinoline trihydrochloride] | 6.33 | 7.85 |
| CCN1CCN(c2nc(-c3ccc(N4C[C@@H](C)O[C@@H](C)C4)nc3)cc3ccccc23)CC1 [Example 149, 3-[2-(2,6-dimethylmorpholin-4-yl)pyridin-5-yl]-1-(4-ethylpiperazin-1-yl)isoquinoline trihydrochloride] | 37.2 | 21.8 |
| CCN1CCN(c2nc(-c3ccc(N4CCSCC4)nc3)cc3ccccc23)CC1 [Example 150, 1-(4-ethylpiperazin-1-yl)-3-[2-(thiomorpholin-4-yl)pyridin-5-yl]isoquinoline trihydrochloride] | 10.7 | 0.8 |
| CCN1CCN(c2nc(-c3ccc(N4CC[S+]([O-])CC4)nc3)cc3ccccc23)CC1 [Example 151, 1-(4-ethylpiperazin-1-yl)-3-[2-(S-oxythiomorpholin-4-yl)pyridin-5-yl]isoquinoline trihydrochloride] | 7 | 79.2 |
| CCN1CCN(c2nc(-c3ccc(N4CCC(O)CC4)nc3)cc3ccccc23)CC1 [Example 152, 1-(4-ethylpiperazin-1-yl)-3-[2-(4-hydroxypiperidin-1-yl)pyridin-5-yl]isoquinoline trihydrochloride] | 6.1 | 12.4 |
| CCN1CCN(c2nc(-c3ccc(N4CCC(OC)CC4)nc3)cc3ccccc23)CC1 [Example 153, 1-(4-ethylpiperazin-1-yl)-3-[2-(4-methoxypiperidin-1-yl)pyridin-5-yl]isoquinoline trihydrochloride] | 12.9 | 1.5 |
| CCN1CCN(c2nc(-c3ccc(N4CCC(CO)CC4)nc3)cc3ccccc23)CC1 [Example 154, 1-(4-ethylpiperazin-1-yl)-3-[2-(4-hydroxymethylpiperidin-1-yl)pyridin-5-yl]isoquinoline trihydrochloride] | 1.6 | 8.8 |
| CCN1CCN(c2nc(-c3ccc(C4=CCOCC4)nc3)cc3ccccc23)CC1 [Example 155, 3-[2-(5,6-dihydro-2H-pyran-4-yl)pyridin-5-yl]-1-(4-ethylpiperazin-1-yl)isoquinoline oxalate] | 20 | 4.34 |
| CCN1CCN(c2nc(-c3ccc(C4CCOCC4)nc3)cc3ccccc23)CC1 [Example 156, 3-[2-(tetrahydropyran-4-yl)pyridin-5-yl]-1-(4-ethylpiperazin-1-yl)isoquinoline oxalate] | 10.9 | 0.01 |
| CCN1CCN(c2nc(-c3ccc(OCCCc4cccnc4)cc3)cc3ccccc23)CC1 [Example 157, 3-[4-[3-(3-pyridyl)propoxy]phenyl]-1-(4-ethylpiperazin-1-yl)isoquinoline hydrochloride] | 29.7 | 4.9 |
| CCN1CCN(c2nc(N3CCN(c4ccccc4)CC3)cc3ccccc23)CC1 [Example 158, 1-(1-ethylpiperazin-4-yl)-3-(1-phenylpiperazin-4-yl)isoquinoline] | 0.41 | 1.08 |
| CCN1CCN(c2nc(N3CCN(c4ccccn4)CC3)cc3ccccc23)CC1 [Example 159, 1-(1-ethylpiperazin-4-yl)-3-[1-(2-pyridyl)piperazin-4-yl]isoquinoline] | 0.65 | 13.2 |
